Molecular target: T1, Glutamate receptor ionotropic, kainate 4 (Homo sapiens, UniProt Q16099)
T1 sequence (Q16099 whole entry): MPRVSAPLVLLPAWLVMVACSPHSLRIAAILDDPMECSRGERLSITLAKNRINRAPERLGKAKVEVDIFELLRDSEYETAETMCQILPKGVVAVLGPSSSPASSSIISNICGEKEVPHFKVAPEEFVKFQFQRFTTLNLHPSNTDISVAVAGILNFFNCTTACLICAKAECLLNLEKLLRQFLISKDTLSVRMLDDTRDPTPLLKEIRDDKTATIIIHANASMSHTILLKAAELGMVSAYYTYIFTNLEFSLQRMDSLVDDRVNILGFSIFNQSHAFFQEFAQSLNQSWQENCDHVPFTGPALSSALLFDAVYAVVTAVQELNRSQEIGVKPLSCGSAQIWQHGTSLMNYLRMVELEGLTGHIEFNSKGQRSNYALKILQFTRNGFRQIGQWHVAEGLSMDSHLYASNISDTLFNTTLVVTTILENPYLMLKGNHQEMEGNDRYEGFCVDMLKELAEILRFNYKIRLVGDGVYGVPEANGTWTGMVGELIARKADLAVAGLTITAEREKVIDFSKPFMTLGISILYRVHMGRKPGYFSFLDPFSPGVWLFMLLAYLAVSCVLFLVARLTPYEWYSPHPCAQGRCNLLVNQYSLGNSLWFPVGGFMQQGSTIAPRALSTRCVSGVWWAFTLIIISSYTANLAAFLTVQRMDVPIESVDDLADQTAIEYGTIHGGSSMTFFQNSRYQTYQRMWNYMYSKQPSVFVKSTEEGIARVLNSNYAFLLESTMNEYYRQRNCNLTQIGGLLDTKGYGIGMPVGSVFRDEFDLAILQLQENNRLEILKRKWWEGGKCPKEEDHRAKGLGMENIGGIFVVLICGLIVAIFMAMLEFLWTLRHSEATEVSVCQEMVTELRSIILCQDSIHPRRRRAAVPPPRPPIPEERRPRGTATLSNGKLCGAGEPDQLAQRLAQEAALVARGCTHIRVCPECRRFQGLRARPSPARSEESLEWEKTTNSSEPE

SMILES | Ki
C/C(=C\C=C\[C@@H](C)C(=O)O)[C@H]1CN[C@H](C(=O)O)[C@H]1CC(=O)O | 10.5 nM
N[C@@H](Cn1oc(=O)[nH]c1=O)C(=O)O [2-amino-3-(3,5-dioxo[1,2,4]oxadiazolidin-2-yl)propionic acid] | 6.43 nM
N#Cc1cc2nc(O)c(O)nc2cc1[N+](=O)[O-] [7-Cyano-3-hydroxy-6-nitro-quinoxalin-2-ol anion] | > 10000 nM
Cc1onc(O)c1CC(N)C(=O)O (stereo not drawn) [(RS)-2-amino-3-(3-hydroxy-5-methylisoxazol-4-yl)-propionicacid] | 1970 nM
C=C(C)[C@H]1CN[C@H](C(=O)O)[C@H]1CC(=O)O [Digensaeure] | 2.29 nM
CN[C@H](CC(=O)O)C(=O)O [NMDA] | > 10000 nM
O=C1N=c2cc([N+](=O)[O-])c([N+](=O)[O-])cc2=NC1=O [NSC_3140] | 8490 nM
CC(C)[C@H]1CN[C@H](C(=O)O)[C@H]1CC(=O)O [dihydrokainic acid] | 3840 nM
NC(CCC(=O)O)C(=O)O (centres undefined) [glutamic acid dianion] | 18.3 nM

Reference: BindingDB's records for doi:10.1046/j.1471-4159.1994.62010001.x (Allelix Biopharmaceuticals, 1994)
